# Measured values from US20110117106A1, “USES OF CALPAIN INHIBITORS TO INHIBIT INFLAMMATION” (priority 2008, published 2011).
# “Also recorded” adds a separate entry of the source.
# Columns and labels:
# [1] = system: PMN transmigration across 16HBE airway epithelial monolayers; assay: PMN transmigration across polarized 16HBE monolayers (myeloperoxidase readout); type: cell-based, human; conditions: 20 μM calpeptin
# From the text: Human PMNs were isolated according to standard techniques from venous blood from healthy consenting adults in accordance with a protocol approved by the Institutional Review Board of Human Subjects at Columbia University (IRB-AAAC5450). PMNs were isolated using dextran sedimentation and Hypaque-Ficoll (Sigma) density-gradient separation, followed by hypotonic lysis of erythrocytes as previously described (Boyum et al, 1968). Purified PMNs were resuspended in HBSS with Ca^2+ and Mg^2+ before use in migration experiments. Migration assays were performed across 16HBE monolayers plated on the underside of 3 μm transwells which were coated with minimal essential media containing 0.01 mg/ml fibronectin, 0.03 mg/ml bovine collagen type I, 0.1 mg/ml BSA. After allowing the cells to adhere overnight, transwells were flipped over and inserted into 24-well plates. 500 μl of media was added to the lower chamber (apical surface of the cell) and 100 μl of media added to the transwell (basolateral surface of the cell). When the cells became confluent, they were polarized with an air liquid interface for 5 days by removing the 500 μl of media in the lower chamber. Selected wells were preincubated for 30 min with 20 μM calpeptin in the apical and basolateral chambers. Monolayers were stimulated with 250 μl heat killed PAO1 (10^7 CFU) or […] […]
# PMNs = assay: PMN migration across a porous Transwell without epithelial cells; type: cell-based, human; set-up: dose or concentration left out as unconfirmed; conditions: in response to live PAO1, heat-killed PAO1 or fMLP
# [2] = target: T1, recombinant human myeloperoxidase (Homo sapiens, UniProt P05164); assay: Myeloperoxidase assay with recombinant enzyme; type: biochemical; conditions: 0.0125 μg/ml enzyme, 20 μM calpeptin
# T1 construct: purchased R&D
# T1 sequence (P05164 49-745): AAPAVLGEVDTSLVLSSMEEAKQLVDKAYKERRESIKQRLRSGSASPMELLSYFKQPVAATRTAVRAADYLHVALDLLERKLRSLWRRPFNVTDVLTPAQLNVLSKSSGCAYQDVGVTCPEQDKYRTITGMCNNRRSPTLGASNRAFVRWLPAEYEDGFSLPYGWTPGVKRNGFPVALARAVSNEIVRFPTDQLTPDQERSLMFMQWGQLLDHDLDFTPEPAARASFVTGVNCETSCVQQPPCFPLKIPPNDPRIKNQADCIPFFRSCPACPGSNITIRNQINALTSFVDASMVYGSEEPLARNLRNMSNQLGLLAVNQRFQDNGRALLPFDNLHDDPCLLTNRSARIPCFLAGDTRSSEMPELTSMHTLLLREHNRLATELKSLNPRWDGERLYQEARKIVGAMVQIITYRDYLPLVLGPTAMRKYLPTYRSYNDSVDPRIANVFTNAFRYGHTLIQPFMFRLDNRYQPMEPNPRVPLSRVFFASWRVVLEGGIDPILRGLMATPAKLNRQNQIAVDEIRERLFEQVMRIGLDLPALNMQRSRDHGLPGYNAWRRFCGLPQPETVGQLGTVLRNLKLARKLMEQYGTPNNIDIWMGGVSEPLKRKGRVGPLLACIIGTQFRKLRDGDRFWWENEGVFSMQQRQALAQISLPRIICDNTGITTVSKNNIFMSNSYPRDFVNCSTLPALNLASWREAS
# [3] = system: PMN recruitment into the lung; assay: Neonatal mouse model of intranasal P. aeruginosa PAO1 infection; type: in vivo
# Description: Seven day old C57BL/6 wild type or tlr2^−/− mice (Jackson Laboratories) were intranasally inoculated with 10 μl PAO1 (10^8 CFU) (Tang et al, 1996). Control mice received 10 μl of PBS. Mice were pretreated with 20 mg/kg calpeptin or DMSO in PBS by intraperitoneal (i.p.) route 16 h and 2 h before intranasal inoculation and a third dose was administered by i.p. route 30 min post infection. Lungs were harvested 4 h after infection and cell suspensions used for PMN detection and immunoblotting. For neutrophil detection, lung cell suspensions were double stained with phycoerythrin (PE)-labeled anti-CD45 (to detect leukocytes) and fluorescein isothiocyanate (FITC)-labeled anti-Ly6G antibodies (to detect neutrophils) (BD Pharmingen) and analyzed by flow cytometry with a FACSCalibur using Cell Quest software (Becton Dickinson) (Gomez et al, 2004). Irrelevant, isotype-matched antibodies were used as a control. Cells were gated on the basis of their forward scatter and side scatter profile and analyzed for double expression of CD45 and Ly6G. Immunoblots were performed on 10 μg of protein obtained by lysing lung cells in OGP buffer as described herein for 1HAEo-cells. Mice protocol number AAAA5999 was approved by the Institutional Animal Care and Use Committee at Columbia University.
# [4] = system: PMN recruitment into the lung and airway lumen; assay: Adult C57BL/6 mouse P. aeruginosa infection with bronchoalveolar lavage; type: in vivo; conditions: adult C57BL/6, i.p. calpeptin, 2 hr infection, versus vehicle
# Description: To test the effects of calpain inhibition on the transmigration of PMNs into P. aeruginosa-infected airways, bronchoalveolar lavage (BAL) experiments were performed on adult C57BL/6 mice. Mice were treated with i.p. calpeptin or vehicle and intranasally infected with P. aeruginosa for 2 hr. PMNs from BAL or whole-lung suspension were quantified by flow cytometry. Compared to vehicle-treated controls, calpeptin-treated mice had 37% fewer PMNs recruited into the whole lung and 90% fewer into the airway lumen, indicating a more pronounced effect on the epithelial junctions (FIG. 8D). […] Thus, recruitment of PMNs into the murine lung and airway lumen in response to P. aeruginosa is facilitated by calpain activity and its effects on junctional proteins at the mucosal surface.
# PMN myeloperoxidase = PMN myeloperoxidase (Homo sapiens, UniProt P05164); assay: Myeloperoxidase activity of PMNs; conditions: 10^4 PMNs, 20 μM calpeptin
smiles,measurement,setting,value
"CCCC[C@@H](C=O)NC(=O)[C@H](CC(C)C)NC(=O)OCc1ccccc1 [calpeptin, Z-Leu-Nle-CHO]",Heat killed P. aeruginosa PAO1 induced PMN transmigration,[1]; p<0.001,inhibited
same,P3C-induced PMN transmigration,[1]; p<0.05,inhibited
same,Migration of PMNs across a porous Transwell (without epithelial cells),PMNs,no effect; also recorded: not affected
same,Migration of PMNs across a porous Transwell (without epithelial cells),PMNs; listed as Calpeptin,did not directly inhibit
same,Myeloperoxidase activity of recombinant human myeloperoxidase,[2],nor did calpeptin inhibit; also recorded: not inhibited
same,Fewer PMNs recruited into the lung,"[3]; 7-day old mice, i.p. calpeptin, 4 hours following intranasal P. aeruginosa, versus vehicle-treated, p<0.05",31%
same,Occludin and E-cadherin cleavage products in whole lung lysates,"[3]; infected wild type mice, i.p. calpeptin versus vehicle",substantially decreased
same,PMN recruitment in tlr2−/− animals,"[3]; tlr2−/− pups, calpain inhibition",not further diminished
same,Fewer PMNs recruited into the airway lumen (BAL),[4],90%
same,Fewer PMNs recruited into the whole lung,[4],37%
same,Myeloperoxidase activity / production by PMNs,PMN myeloperoxidase,not inhibited
